Measurements taken from publication PMC2009384, “The carcinogenicity of polycyclic hydrocarbon epoxides in newborn mice” (British Journal of Cancer, 1975).

How the values were obtained:
[1] = tested on: newborn Swiss mice; assay: Experiment I: carcinogenicity in newborn mice, benz(a)anthracene vs its K region epoxide (s.c. injection, tumour incidence to 70-75 weeks)
Excerpt: Br. J. Cancer (1975) 31, 182 THE CARCINOGENICITY OF POLYCYCLIC HYDROCARBON EPOXIDES IN NEWBORN MICE P. L. GROVER, P. SIMS, B. C. V. MITCHLEY AND F. J. C. ROE From the Chester Beatty Research Institute, Institute of Cancer Research, Royal Cancer Hospital, Fulham Road, London, SW3 6JB Received 9 August 1974. […] THE HYPOTHESIS that the carcino- genicity of polycyclic hydrocarbons is associated with the formation of epoxide metabolites (Grover, Hewer and Sims, 1971, 1972; Keysell et al., 1973) is sup- ported by some experimental evidence but remains unproven. […] The epoxides can also act as alkylating agents (Grover and Sims, 1970) and as mutagens (Ames, Sims and Grover, 1972; Huberman et al., 1971; Cookson, Sims and Grover, 1971; Fahmy and Fahmy, 1973). […] The newborn mouse, which is susceptible to carcinogenic polycyclic hydrocarbons (Roe, Rowson and Salaman, 1961; Roe, Mitchley and Walters, 1963; Walters and Roe, 1964, 1966) can be considered as a convenient source of several types of rapidly dividing cells. Consequently we have tested the K region epoxides derived from phenanthrene, benz(a)anthracene, 7-methylbenz(a)anthracene, dibenz(a,h)- anthracene, chrysene and 3-methylchol- anthrene, together with some of the CARCINOGENICITY OF POLYCYCLIC HYDROCARBON EPOXIDES IN MICE 183 parent hydrocarbons, for carcinogenicity using newborn mice. This paper presents the results that were obtained in these experiments. MATERIALS AND METHODS The polycyclic hydrocarbon epoxides, phenanthrene 9,10-oxide, benz(a)anthracene 5,6-oxide, 7-methylbenz(a)anthracene 5,6- oxide, dibenz(a,h)anthracene 5,6-oxide, chry- sene 5,6-oxide and 3-methylcholanthrene 11,12-oxide were prepared from the parent hydrocarbons (Newman and Blum, 1964; Boyland and Sims, 1965; Sims 1966). Two experiments were undertaken fol- lowing similar protocols. For each experi- ment Swiss mice from a specific pathogen- free colony were time mated so as to produce a large number of litters over the course of 2 or 3 days. […] Test compounds were suspended in poly- ethylene glycol (PEG) 400 and injections of 0-02 ml of the suspension were given by introducing a 25 gauge hypodermic needle through the skin near the root of the tail and threading it subcutaneously to deliver the injected material in the interscapular region. Injections were given to every mouse on the first day or first 3 days of life. The details of treatments and numbers of mice of each sex in each group are shown in Table I (Experiment I) and Table II (Ex- periment II). Surviving mice were weaned when they w ere 21 days old. Thereafter, males and females w ere separated and housed 6 per cage in metal boxes. A mixture of sawdust and wood shavings was used as bedding. The mice were fed on a standard cubed diet (Formulation 86 from C. Holdman and Sons (Plow co Feeds), Byers Lane, South Godstone, Surrey) and water was given ad libitum. Mice were inspected daily, and at weekly intervals they were weighed and palpated for tumours and other lesions. […] The experiment was terminated when surviving mice were between 70 and 75 weeks old. A full routine post- mortem examination, which included disten- sion of the urinary bladder with fixative, was carried out. The number of lesions thought to be neoplasms and the size of the largest such lesion in each organ affected were recorded. All tissues with suspected neoplasms were fixed in Bouin's solution. Haematoxylin and eosin stained 5 µm paraffin wax sections were prepared and examined microscopically. RESULTS The results of the two experiments in terms of tumour incidence are sum- marized in […].

[2] = tested on: newborn mice; conditions: ref Roe and Walters, 1967; cited from earlier work
[3] = Groups A, B and C, 3 x 200, 100, 50 µg s.c.
[4] = females, 50 µg per treatment s.c. on Days 0, 1 and 2
[5] = females, 50 µg per treatment s.c. on Days 0, 1 and 2 in PEG 400
[6] = females, 100 µg per treatment s.c. on Days 0, 1 and 2
[7] = females, 100 µg per treatment s.c. on Days 0, 1 and 2 in PEG 400
[8] = females, 200 µg per treatment s.c. on Days 0, 1 and 2
[9] = females, 200 µg per treatment s.c. on Days 0, 1 and 2 in PEG 400
[10] = males, 50 µg per treatment s.c. on Days 0, 1 and 2
[11] = males, 50 µg per treatment s.c. on Days 0, 1 and 2 in PEG 400
[12] = males, 100 µg per treatment s.c. on Days 0, 1 and 2
[13] = males, 100 µg per treatment s.c. on Days 0, 1 and 2 in PEG 400
[14] = males, 200 µg per treatment s.c. on Days 0, 1 and 2
[15] = males, 200 µg per treatment s.c. on Days 0, 1 and 2 in PEG 400

c1ccc2cc3c(ccc4ccccc43)cc2c1 [Benz(a)anthracene, reference compound]
effect on the incidence of liver tumours in male mice [1, 3]: dose related effect | effect on the incidence of lung tumours in mice of both sexes [1, 3]: dose related effect | No. of mice examined at p.m. at termination of experiment (70th-75th week) with liver tumours [1, 4]: 2 | No. of mice examined at p.m. at termination of experiment (70th-75th week) with lung tumours [1, 4]: 7 | No. of mice examined at p.m. at termination of experiment (70th-75th week) with multiple liver tumours [1, 4]: 1 | No. of mice examined at p.m. at termination of experiment (70th-75th week) with multiple lung tumours [1, 4]: 3 | No. of mice examined at p.m. at termination of experiment (70th-75th week) with other tumours [1, 4]: 0 | No. of mice examined at p.m. from 50th-70th week with liver tumours [1, 4]: 0 | No. of mice examined at p.m. from 50th-70th week with lung tumours [1, 4]: 1 | No. of mice examined at p.m. from 50th-70th week with other tumours [1, 4]: 0 | No. of survivors at 50 weeks [1, 5]: 25 | No. of survivors at 70 weeks [1, 5]: 21 | No. of mice examined at p.m. at termination of experiment (70th-75th week) with liver tumours [1, 6]: 0 | No. of mice examined at p.m. at termination of experiment (70th-75th week) with lung tumours [1, 6]: 5 | No. of mice examined at p.m. at termination of experiment (70th-75th week) with multiple liver tumours [1, 6]: 0 | No. of mice examined at p.m. at termination of experiment (70th-75th week) with multiple lung tumours [1, 6]: 2 | No. of mice examined at p.m. at termination of experiment (70th-75th week) with other tumours [1, 6]: 0 | No. of mice examined at p.m. from 50th-70th week with liver tumours [1, 6]: 0 | No. of mice examined at p.m. from 50th-70th week with lung tumours [1, 6]: 2 | No. of mice examined at p.m. from 50th-70th week with other tumours [1, 6]: 0 | No. of survivors at 50 weeks [1, 7]: 17 | No. of survivors at 70 weeks [1, 7]: 13 | No. of mice examined at p.m. at termination of experiment (70th-75th week) with liver tumours [1, 8]: 2 | No. of mice examined at p.m. at termination of experiment (70th-75th week) with lung tumours [1, 8]: 10 | No. of mice examined at p.m. at termination of experiment (70th-75th week) with multiple liver tumours [1, 8]: 1 | No. of mice examined at p.m. at termination of experiment (70th-75th week) with multiple lung tumours [1, 8]: 10 | No. of mice examined at p.m. at termination of experiment (70th-75th week) with other tumours [1, 8]: 1 | No. of mice examined at p.m. from 50th-70th week with liver tumours [1, 8]: 0 | No. of mice examined at p.m. from 50th-70th week with lung tumours [1, 8]: 0 | No. of mice examined at p.m. from 50th-70th week with other tumours [1, 8]: 0 | No. of survivors at 50 weeks [1, 9]: 18 | No. of survivors at 70 weeks [1, 9]: 18 | No. of mice examined at p.m. at termination of experiment (70th-75th week) with liver tumours [1, 10]: 9 | No. of mice examined at p.m. at termination of experiment (70th-75th week) with lung tumours [1, 10]: 5 | No. of mice examined at p.m. at termination of experiment (70th-75th week) with multiple liver tumours [1, 10]: 5 | No. of mice examined at p.m. at termination of experiment (70th-75th week) with multiple lung tumours [1, 10]: 2 | No. of mice examined at p.m. at termination of experiment (70th-75th week) with other tumours [1, 10]: 0 | No. of mice examined at p.m. from 50th-70th week with liver tumours [1, 10]: 3 | No. of mice examined at p.m. from 50th-70th week with lung tumours [1, 10]: 1 | No. of mice examined at p.m. from 50th-70th week with other tumours [1, 10]: 0 | No. of survivors at 50 weeks [1, 11]: 29 | No. of survivors at 70 weeks [1, 11]: 25 | No. of mice examined at p.m. at termination of experiment (70th-75th week) with liver tumours [1, 12]: 15 | No. of mice examined at p.m. at termination of experiment (70th-75th week) with lung tumours [1, 12]: 5 | No. of mice examined at p.m. at termination of experiment (70th-75th week) with multiple liver tumours [1, 12]: 11 | No. of mice examined at p.m. at termination of experiment (70th-75th week) with multiple lung tumours [1, 12]: 3 | No. of mice examined at p.m. at termination of experiment (70th-75th week) with other tumours [1, 12]: 1 | No. of mice examined at p.m. from 50th-70th week with liver tumours [1, 12]: 4 | No. of mice examined at p.m. from 50th-70th week with lung tumours [1, 12]: 1 | No. of mice examined at p.m. from 50th-70th week with other tumours [1, 12]: 0 | No. of survivors at 50 weeks [1, 13]: 25 | No. of survivors at 70 weeks [1, 13]: 19 | No. of mice examined at p.m. at termination of experiment (70th-75th week) with liver tumours [1, 14]: 15 | No. of mice examined at p.m. at termination of experiment (70th-75th week) with lung tumours [1, 14]: 4 | No. of mice examined at p.m. at termination of experiment (70th-75th week) with multiple liver tumours [1, 14]: 15 | No. of mice examined at p.m. at termination of experiment (70th-75th week) with multiple lung tumours [1, 14]: 4 | No. of mice examined at p.m. at termination of experiment (70th-75th week) with other tumours [1, 14]: 0 | No. of mice examined at p.m. from 50th-70th week with liver tumours [1, 14]: 1 | No. of mice examined at p.m. from 50th-70th week with lung tumours [1, 14]: 1 | No. of mice examined at p.m. from 50th-70th week with other tumours [1, 14]: 0 | No. of survivors at 50 weeks [1, 15]: 18 | No. of survivors at 70 weeks [1, 15]: 15

c1ccc2c(c1)ccc1ccccc12 [phenanthrene]
activity in newborn mice [2]: inactive
